# From ChEMBL document CHEMBL4219139, “Enantiomeric trans β-aryl-δ-iodo-γ-lactones derived from 2,5-dimethylbenzaldehyde induce apoptosis in canine lymphoma cell lines by downregulation of anti-apoptotic Bcl-2 family members Bcl-xL and Bcl-2” (2018)
# Activity calls are given as the source filed them. The calls are words filed in the database; no cut-off is given here.
# Key:
# Canis lupus familiaris [1] = species on record: Canis lupus familiaris; test: Induction of apoptosis in canine GL1 cells preincubated with Z-VAD-fmk pan-caspase inhibitor assessed as activation of caspase-3/7 at 50 ug/ml after 24 hrs by flow cytometry; type: functional, cell-based
# CLB70 [2] = test: Induction of apoptosis in canine CLB70 cells preincubated with Z-VAD-fmk pan-caspase inhibitor assessed as activation of caspase-3/7 at 50 ug/ml after 24 hrs by flow cytometry; type: functional, cell-based; conditions: Canis lupus familiaris
# CLB70 [3] = test: Induction of apoptosis in canine CLB70 cells at 50 ug/ml after 24 hrs by Annexin V/FITC staining based FACS analysis; type: functional, cell-based; conditions: Canis lupus familiaris
# CLBL-1 [4] = test: Induction of apoptosis in canine CLBL1 cells assessed as cleavage of Bid at 25 to 50 ug/ml after 24 hrs by Western blot analysis; type: functional, cell-based; conditions: Canis lupus familiaris
# CLBL-1 [5] = test: Cytotoxic activity against canine CLBL1 cells assessed as cell death after 24 hrs by propidium iodide staining-based FACS analysis; type: functional; conditions: Canis lupus familiaris
# CLB70 [6] = test: Cytotoxic activity against canine CLB70 cells assessed as cell death at 50 ug/ml after 24 hrs by propidium iodide staining-based FACS analysis; type: functional, Canis lupus familiaris
# Jurkat [7] = test: Induction of apoptosis in human Jurkat cells at 50 ug/ml after 24 hrs by Annexin V/FITC staining based FACS analysis; type: functional, cell-based
# Jurkat [8] = test: Induction of apoptosis in human Jurkat cells preincubated with Z-VAD-fmk pan-caspase inhibitor assessed as activation of caspase-3/7 at 50 ug/ml after 24 hrs by flow cytometry; type: functional, cell-based
# Canis lupus familiaris [9] = species on record: Canis lupus familiaris; test: Cytotoxic activity against canine GL1 cells assessed as cell death after 24 hrs by propidium iodide staining-based FACS analysis; type: functional
# CLBL-1 [10] = test: Induction of apoptosis in canine CLBL1 cells assessed as downregulation of Bcl-xl expression at 25 to 50 ug/ml after 24 hrs by Western blot analysis; type: functional, cell-based; conditions: Canis lupus familiaris
# CLBL-1 [11] = test: Induction of apoptosis in canine CLBL1 cells assessed as activation of caspase-3/7 at 50 ug/ml after 24 hrs by flow cytometry; type: functional, Canis lupus familiaris
# [12] = Induction of apoptosis in canine GL1 cells assessed as activation of caspase-3/7 at 50 ug/ml after 24 hrs by flow cytometry; type: functional, Canis lupus familiaris
# CLB70 [13] = test: Induction of apoptosis in canine CLB70 cells assessed as activation of caspase-3/7 at 50 ug/ml after 24 hrs by flow cytometry; type: functional, Canis lupus familiaris
# Jurkat [14] = test: Induction of apoptosis in human Jurkat cells assessed as downregulation of Bcl-2 expression at 25 to 50 ug/ml after 24 hrs by Western blot analysis; type: functional, cell-based
# Jurkat [15] = test: Induction of apoptosis in human Jurkat cells assessed as cleavage of Bid at 25 to 50 ug/ml after 24 hrs by Western blot analysis; type: functional, cell-based
# CLB70 [16] = test: Induction of apoptosis in canine CLB70 cells assessed as downregulation of Bcl-2 expression at 25 to 50 ug/ml after 24 hrs by Western blot analysis; type: functional, cell-based; conditions: Canis lupus familiaris
# [17] = Cytotoxic activity against canine GL1 cells assessed as cell death at 50 ug/ml after 24 hrs by propidium iodide staining-based FACS analysis; type: functional, Canis lupus familiaris
# Jurkat [18] = test: Cytotoxic activity against human Jurkat cells assessed as cell death at 50 ug/ml after 24 hrs by propidium iodide staining-based FACS analysis; type: functional
# Canis lupus familiaris [19] = species on record: Canis lupus familiaris; test: Induction of apoptosis in canine GL1 cells at 50 ug/ml after 24 hrs by Annexin V/FITC staining based FACS analysis; type: functional, cell-based
# Jurkat [20] = test: Induction of apoptosis in human Jurkat cells assessed as activation of caspase-3/7 at 50 ug/ml after 24 hrs by flow cytometry; type: functional
# Jurkat [21] = test: Induction of apoptosis in human Jurkat cells assessed as cleavage of PARP1 at 25 to 50 ug/ml after 24 hrs by Western blot analysis; type: functional, cell-based
# CLBL-1 [22] = test: Induction of apoptosis in canine CLBL1 cells assessed as cleavage of PARP1 at 50 ug/ml after 24 hrs by Western blot analysis; type: functional, cell-based; conditions: Canis lupus familiaris
# CLB70 [23] = test: Induction of apoptosis in canine CLB70 cells assessed as downregulation of Bcl-xl expression at 25 to 50 ug/ml after 24 hrs by Western blot analysis; type: functional, cell-based; conditions: Canis lupus familiaris
# CLBL-1 [24] = test: Cytotoxic activity against canine CLBL1 cells assessed as cell death at 50 ug/ml after 24 hrs by propidium iodide staining-based FACS analysis; type: functional, Canis lupus familiaris
# CLBL-1 [25] = test: Induction of apoptosis in canine CLBL1 cells at 50 ug/ml after 24 hrs by Annexin V/FITC staining based FACS analysis; type: functional, cell-based; conditions: Canis lupus familiaris
# CLB70 [26] = test: Cytotoxic activity against canine CLB70 cells assessed as cell death after 24 hrs by propidium iodide staining-based FACS analysis; type: functional; conditions: Canis lupus familiaris
# CLBL-1 [27] = test: Induction of apoptosis in canine CLBL1 cells preincubated with Z-VAD-fmk pan-caspase inhibitor assessed as activation of caspase-3/7 at 50 ug/ml after 24 hrs by flow cytometry; type: functional, cell-based; conditions: Canis lupus familiaris
# Jurkat [28] = test: Cytotoxic activity against human Jurkat cells assessed as cell death after 24 hrs by propidium iodide staining-based FACS analysis; type: functional
# CLBL-1 [29] = test: Induction of apoptosis in canine CLBL1 cells assessed as downregulation of Bcl-2 expression at 25 to 50 ug/ml after 24 hrs by Western blot analysis; type: functional, cell-based; conditions: Canis lupus familiaris
# Canis lupus familiaris [30] = species on record: Canis lupus familiaris; test: Induction of apoptosis in canine GL1 cells assessed as downregulation of Bcl-xl expression at 25 to 50 ug/ml after 24 hrs by Western blot analysis; type: functional, cell-based
# Jurkat [31] = test: Induction of apoptosis in human Jurkat cells assessed as downregulation of Bcl-xl expression at 25 to 50 ug/ml after 24 hrs by Western blot analysis; type: functional, cell-based
# Canis lupus familiaris [32] = species on record: Canis lupus familiaris; test: Induction of apoptosis in canine GL1 cells assessed as downregulation of Bcl-2 expression at 25 to 50 ug/ml after 24 hrs by Western blot analysis; type: functional, cell-based
# CLB70 [33] = test: Induction of apoptosis in canine CLB70 cells assessed as cleavage of PARP1 at 25 to 50 ug/ml after 24 hrs by Western blot analysis; type: functional, cell-based; conditions: Canis lupus familiaris
# CLB70 [34] = test: Induction of apoptosis in canine CLB70 cells assessed as downregulation of Bcl-xl expression at 50 ug/ml after 24 hrs by Western blot analysis; type: functional, cell-based; conditions: Canis lupus familiaris
# Canis lupus familiaris [35] = species on record: Canis lupus familiaris; test: Induction of apoptosis in canine GL1 cells assessed as downregulation of Bcl-xl expression at 25 ug/ml after 24 hrs by Western blot analysis; type: functional, cell-based
# Canis lupus familiaris [36] = species on record: Canis lupus familiaris; test: Induction of apoptosis in canine GL1 cells assessed as downregulation of Bcl-2 expression at 50 ug/ml after 24 hrs by Western blot analysis; type: functional, cell-based
# CLBL-1 [37] = test: Induction of apoptosis in canine CLBL1 cells assessed as downregulation of Bcl-2 expression at 50 ug/ml after 24 hrs by Western blot analysis; type: functional, cell-based; conditions: Canis lupus familiaris
# Canis lupus familiaris [38] = species on record: Canis lupus familiaris; test: Induction of apoptosis in canine GL1 cells assessed as downregulation of Bcl-xl expression at 50 ug/ml after 24 hrs by Western blot analysis; type: functional, cell-based
# CLBL-1 [39] = test: Induction of apoptosis in canine CLBL1 cells assessed as downregulation of Bcl-xl expression at 50 ug/ml after 24 hrs by Western blot analysis; type: functional, cell-based; conditions: Canis lupus familiaris
# Jurkat [40] = test: Induction of apoptosis in human Jurkat cells assessed as downregulation of Bcl-2 expression at 50 ug/ml after 24 hrs by Western blot analysis; type: functional, cell-based
# Canis lupus familiaris [41] = species on record: Canis lupus familiaris; test: Induction of apoptosis in canine GL1 cells assessed as cleavage of Bid at 25 to 50 ug/ml after 24 hrs by Western blot analysis; type: functional, cell-based
# Jurkat [42] = test: Induction of apoptosis in human Jurkat cells assessed as downregulation of Bcl-xl expression at 50 ug/ml after 24 hrs by Western blot analysis; type: functional, cell-based
# CLB70 [43] = test: Induction of apoptosis in canine CLB70 cells assessed as downregulation of Bcl-2 expression at 50 ug/ml after 24 hrs by Western blot analysis; type: functional, cell-based; conditions: Canis lupus familiaris
# Jurkat [44] = test: Induction of apoptosis in human Jurkat cells assessed as downregulation of Bcl-xl expression at 25 ug/ml after 24 hrs by Western blot analysis; type: functional, cell-based
# CLB70 [45] = test: Induction of apoptosis in canine CLB70 cells assessed as cleavage of Bid at 25 to 50 ug/ml after 24 hrs by Western blot analysis; type: functional, cell-based; conditions: Canis lupus familiaris
Structure (SMILES),Activity (Canis lupus familiaris [1]),Activity (CLB70 [2]),Activity (CLB70 [3]),Activity (CLBL-1 [5]),Activity (CLB70 [6]),Activity (Jurkat [7]),Activity (Jurkat [8]),Activity (Canis lupus familiaris [9]),Activity (CLBL-1 [11]),Activity [12],Activity (CLB70 [13]),Activity (Jurkat [15]),Activity [17],Activity (Jurkat [18]),Activity (Canis lupus familiaris [19]),Activity (Jurkat [20]),Activity (Jurkat [21]),Activity (CLBL-1 [22]),Activity (CLBL-1 [24]),Activity (CLBL-1 [25]),other results
Cc1ccc(C)c([C@@H]2CC(=O)O[C@H]2[C@H](C)I)c1,inactive,inactive,Active,Dose-dependent effect,25%,Active,inactive,Dose-dependent effect,73.53%,20.35%,30.04%,inactive,25%,25%,Active,32.35%,Active,Active,80%,Active,Activity (CLBL-1 [4]): Active; Activity (CLBL-1 [10]): inactive; Activity (Jurkat [14]): Active; Activity (CLB70 [16]): Active; Activity (CLB70 [23]): Active; Activity (CLB70 [26]): Dose-dependent effect; Activity (CLBL-1 [27]): inactive; Activity (Jurkat [28]): Dose-dependent effect; Activity (CLBL-1 [29]): inactive; Activity (Canis lupus familiaris [30]): Active; Activity (Jurkat [31]): Active; Activity (Canis lupus familiaris [32]): Active; Activity (CLB70 [33]): Active
Cc1ccc(C)c([C@H]2CC(=O)O[C@@H]2[C@@H](C)I)c1,inactive,inactive,Active,Dose-dependent effect,60%,Active,inactive,Dose-dependent effect,78.89%,58.47%,55.8%,inactive,60%,60%,Active,66.93%,Active,Active,80%,Active,Activity (CLB70 [34]): Active; Activity (Canis lupus familiaris [35]): inactive; Activity (Canis lupus familiaris [36]): Active; Activity (CLBL-1 [37]): inactive; Activity (Canis lupus familiaris [38]): Active; Activity (CLBL-1 [39]): inactive; Activity (Jurkat [40]): Active; Activity (Canis lupus familiaris [41]): Active; Activity (CLB70 [26]): Dose-dependent effect; Activity (Jurkat [42]): Active; Activity (CLBL-1 [27]): inactive; Activity (Jurkat [28]): Dose-dependent effect; Activity (CLB70 [43]): Active; Activity (Jurkat [44]): inactive; Activity (CLB70 [45]): Active; Activity (CLB70 [33]): Active
